Data taken from patent publication US8158621B2, “Methods of treating or preventing autoimmune diseases with 2,4-pyrimidinediamine compounds” (Rigel Pharmaceuticals, Inc., priority 2002, dated 2012).

How the values were obtained:
[1] = test system: Human Jurkat T-cells (clone N); experiment: Jurkat T-cell activation (anti-TCR, CD69 upregulation); type: cell-based
In short: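 Jurkat cells in RPMI + 5% FBS preincubated with compound 1 h at 37 °C, then stimulated with anti-TCR C305 at 500 ng/ml for 20 h. CD69 surface expression stained with anti-CD69-APC and read by flow cytometry; IC50 versus solvent-only control.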

[2] = test system: cultured human mast cells (CHMC); experiment: CHMC low cell density ionomycin activation: hexosaminidase assay; type: cell-based; conditions: hexosaminidase release, read-out: CHMC Ionomycin Hexos. IC50
Description: (§1) Inhibition of degranulation was measured at both low and high cell density by quantifying the release of the granule specific factors tryptase, histamine and hexosaminidase. Inhibition of release and/or synthesis of lipid mediators was assessed by measuring the release of leukotriene LTC4 and inhibition of release and/or synthesis of cytokines was monitored by quantifying TNF-α, IL-6 and IL-13. Tryptase and hexosaminidase were quantified using fluorogenic substrates as described in their respective examples. Histamine, TNFα, IL-6, IL-13 and LTC4 were quantified using the following commercial ELISA kits: histamine (Immunotech #2015, Beckman Coulter), TNFα (Biosource #KHC3011), IL-6 (Biosource #KMC0061), IL-13 (Biosource #KHC0132) and LTC4 (Cayman Chemical #520211). The protocols of the various assays are provided below.

[3] = test system: basophil cells (human peripheral blood); experiment: Basophil anti-IgE activation: histamine release assay; type: cell-based; conditions: basophils, anti-IgE activation, histamine release; read-out: Basophils anti-IgE Histamine IC50
Description: (§2) The basophil activation assay was carried out using whole human peripheral blood from donors allergic to dust mites with the majority of the red blood cells removed by dextran sedimentation. Human peripheral blood was mixed 1:1 with 3% dextran T500 and RBCs were allowed to settle for 20-25min. The upper fraction was diluted with 3 volumes of D-PBS and cells were spun down for 10 min at 1500 rpm, RT. Supernatant was aspirated and cells were washed in an equal volume MT-buffer. Finally, cells were resuspended in MT-buffer containing 0.5% DMSO in the original blood volume. 80 uL cells were mixed with 20 uL compound in the presence of 0.5% DMSO, in triplicate, in a V-bottom 96-well tissue culture plate. A dose range of 8 compound concentrations was tested resulting in a 10-point dose response curve including maximum (stimulated) and minimum (unstimulated) response. […] The cells were stimulated for 30 minutes at 37° C., 5% CO2. The plate was spun for 10 min at 1500 rpm at room temperature and 80 uL the supernatant was harvested for histamine content analysis using the histamine ELISA kit supplied by Immunotech. The ELISA was performed according to supplier's instructions.

B-cell line BJAB [4] = experiment: BJAB (B-cell) toxicity, light scatter; type: cell-based; conditions: read-out: Toxicity BJAB Light Scat.
Description: The B-cell line BJAB was cultured in log phase in RPMI1640+10% heat-inactivated fetal bovine serum, 1× L-glutamine, 1× penicillin, 1× […] and 1× beta-mercaptoethanol at 37° C., 5% CO2. First, BJABs were harvested, spun and resuspended in culture medium to a concentration of 7.7×10^5 cells/mL. 65 uL cells were mixed with 65 uL compound, in duplicate and in the presence of 0.1% DMSO in a V-bottomed 96-well tissue culture plate. Cells were incubated with compound at various dilutions at 37° C., 5% CO2. Toxicity was assessed by flow cytometric analysis of cellular light scatter.

[5] = test system: cultured human mast cells (CHMC); experiment: CHMC low cell density IgE activation: LTC4 assay; type: cell-based; conditions: anti-IgE activation, LTC4 release
In short: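 Cultured human mast cells at low density (1000-1500 per well) rested 1 h at 37° C, then stimulated with anti-IgE for 30 min at 37° C. Supernatant tryptase measured with fluorogenic substrate (30 min, room temperature); LTC4 quantified by ELISA on diluted supernatant.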

[6] = test system: basophil cells (human peripheral blood); experiment: Basophil ionomycin activation: histamine release assay; type: cell-based; conditions: basophils, ionomycin activation, histamine release; read-out: Basophils Ionomycin Histamine IC50
Description: as §2
Assays for ionomycin-induced basophil cell degranulation were carried out as described for the Basophil IgE or Dustmite Activation Assay (Section 7.5.5, supra), with the exception that following incubation with compound, cells were stimulated with 20 μl of 2 μM ionomycin.

Jurkat cells [7] = experiment: Jurkat (T-cell) toxicity, light scatter; type: cell-based, human; conditions: read-out: Toxicity Jurkat Light Scat.
Description: Dilute Jurkat cells to 2×10^5 cells/ml in complete RPMI (10% heat-inactivated fetal bovine serum) media and incubate at 37° C., 5% CO2 for 18 hours. Add 65 ul cells at 7.7×10^5 cells/ml to a 96-well V-bottom plate (TC-treated, Costar) containing 65 ul 2× compound (final vehicle concentration is 0.5% DMSO, 1.5% MeOH). Mix, incubate plates for 18-24 hr at 37° C., 5% CO2. Toxicity was assessed by flow cytometric analysis of cellular light scatter

[8] = test system: bone marrow derived mast cells (BMMC); experiment: BMMC high cell density IgE activation: hexosaminidase; type: cell-based, mouse; conditions: High Density; read-out: BMMC anti-IgE hexos
[9] = test system: bone marrow derived mast cells (BMMC); experiment: BMMC high cell density ionomycin activation: hexosaminidase; type: cell-based, mouse; conditions: read-out: BMMC Ionomycin Hexos.
Description: Add 50 uL of BMMC cell supernatant (see above) to the hexoseaminidase substrate, place at 37° C. for 30 minutes and read the plate at 5, 10, 15, and 30 minutes on a spectrophotometer.

[10] = test system: cultured human mast cells (CHMC); experiment: CHMC low cell density IgE activation: hexosaminidase assay; type: cell-based; conditions: anti-IgE activation, hexosaminidase release, read-out: CHMC anti-IgE Hexos. IC50
Description: as §1

[11] = test system: cultured human mast cells (CHMC); experiment: CHMC low cell density ionomycin activation: tryptase assay; type: cell-based; conditions: Low Density CHMC, ionomycin activation, tryptase release; read-out: CHMC Ionomycin Tryptase IC50
Syk kinase = target: T1, Syk kinase (Homo sapiens, UniProt P43405); experiment: Syk kinase biochemical fluorescence polarization assay; conditions: isolated Syk kinase, fluorescence polarization, 4 uM ATP
T1 construct: purchased Upstate, Lake Placid NY

[12] = test system: cultured human mast cells (CHMC); experiment: CHMC high cell density IgE activation: hexos; type: cell-based
Jurkat cells [13] = experiment: Jurkat toxicity, Cell Titer Glo assay; type: cell-based, human
Description: Seed 50 μl cells (1×10^6/ml) into each well containing 50 μl compound. […] Shake plates for 1 minute to mix cells and compound. Incubate plates at 37° C. […] Next day, harvest 50 μl cells from each well, add to 50 μl Cell Titer Glo reagent ([…]). Shake plates for 1 minute. Read on luminometer.

[14] = test system: cultured human mast cells (CHMC); experiment: CHMC high cell density IgE activation: tryptase; type: cell-based
B-cell line BJAB [15] = experiment: BJAB toxicity, Cell Titer Glo assay; type: cell-based
Description: Seed 50 μl cells (1×10^6/ml) into each well containing 50 μl compound. The final vehicle concentration is 0.5% DMSO, 1.5% MeOH. Shake plates for 1 minute to mix cells and compound. Incubate plates at 37° C. (5% CO2) for 18 hours. Next day, harvest 50 μl cells from each well, add to 50 μl Cell Titer Glo reagent ([…]). Shake plates for 1 minute. Read on luminometer.

SMILES | IC50 [1] [µM] | IC50 [2] [µM] | IC50 [3] [µM] | IC50 (B-cell line BJAB [4]) [µM] | IC50 [5] [µM] | IC50 [6] [µM] | IC50 (Jurkat cells [7]) [µM] | IC50 [8] [µM] | IC50 [9] [µM] | IC50 [10] [µM] | IC50 [11] [µM] | IC50 (Syk kinase) [µM] | IC50 [12] [µM] | IC50 (Jurkat cells [13]) [µM] | IC50 [14] [µM] | IC50 (B-cell line BJAB [15]) [µM]
CCOc1ccc(Nc2nc(Nc3ccc(OC)c(OC)c3)ncc2F)cc1 [Compound R926108] | 10.4 | 6.4 | 0.95 | > 10 | 0.76 | > 10 | > 10 | 0.9 | > 10 | 0.787 |  |  |  |  |  | 
CCOc1ccc(Nc2nc(Nc3cccc(O)c3)ncc2F)cc1 [Compound R926146] | > 10 | 6.7 |  | > 10 | 1.59 |  | > 10 | 1.35 | 5 | 0.761 |  |  |  |  |  | 
Oc1cccc(Nc2ncc(F)c(Nc3ccc4c(c3)OCCO4)n2)c1 [Compound R926210] | 4.38 | > 10 | 0.37 | > 10 | 0.8 | > 10 | > 10 | 0.6 | > 10 |  | > 10 |  |  |  |  | 
O=C(c1cc2cc(Nc3ncc(F)c(Nc4ccc5c(c4)OCCO5)n3)ccc2o1)N1CCNCC1 [Compound R926501] | 1.68 |  |  |  |  | > 10 |  |  |  |  |  | 0.193 | > 2 | > 4.33 | > 2 | > 4.33
